From patent publication US20250115598A1 (Anaxis Pharma Pty Ltd, priority 2021, published 2025)
Where two headings read alike, the source gives them in different places. Values belong to the compound of their own block, whether it stands above or below them.

Key:
human MLKL (full length) = human MLKL (full length) (Homo sapiens (Human), UniProt Q8NB16); assay: KINOMEscan binding assay, human MLKL (full length)
In short: (§1)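 Assay principle: test compound competes with immobilized bead ligand for kinase; kinase retained, then eluted, is counted by qPCR. Conditions were 1% DMSO final with 11 compound concentrations in 3-fold steps, 30,000 nM top for most. The Hill equation with slope −1 gave Kd.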

endogenous MLKL in MDF = endogenous MLKL in MDF (Mus musculus (Mouse), UniProt Q9D2Y4); assay: Degradation assay: endogenous MLKL in MDF (western blot); settings: MDF cells, 24 h incubation with compound, MLKL adjusted for loading with GAPDH, normalized to DMSO only control, read-out: Degradation of endogenous MLKL in MDF (DC50 cell-based assay)
Chain of endogenous MLKL in MDF (Q9D2Y4 whole entry): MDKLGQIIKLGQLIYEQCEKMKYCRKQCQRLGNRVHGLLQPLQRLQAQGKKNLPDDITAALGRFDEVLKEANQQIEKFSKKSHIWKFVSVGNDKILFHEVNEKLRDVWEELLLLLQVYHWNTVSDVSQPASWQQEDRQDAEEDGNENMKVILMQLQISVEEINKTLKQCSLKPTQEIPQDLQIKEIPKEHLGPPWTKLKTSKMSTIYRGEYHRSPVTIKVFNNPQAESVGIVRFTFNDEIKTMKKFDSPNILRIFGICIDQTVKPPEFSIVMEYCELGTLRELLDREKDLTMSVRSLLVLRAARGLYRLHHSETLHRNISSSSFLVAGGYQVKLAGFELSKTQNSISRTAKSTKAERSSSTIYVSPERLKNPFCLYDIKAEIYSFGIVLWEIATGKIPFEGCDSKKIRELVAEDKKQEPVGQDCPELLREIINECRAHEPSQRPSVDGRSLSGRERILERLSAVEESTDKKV
Experimental: Degradation Assay: Screening Compounds Procedure to Evaluate the Activity of Compounds in Degrading Endogenous MLKL in Human and Mouse Cell
The mouse dermal fibroblast (MDF) cell line was seeded the day before the experiment in a 24-well plate at a cell density of […] per well in a volume of 0.5 mL per well and left to attach overnight. The human monocyte cell line (U937) was seeded on the day of the experiment in a 24-well plate at a cell density of […] per well in a volume of 0.5 mL per well.
The compound was diluted in DMSO with a starting concentration of 10 mM and titrated stepwise with a dilution of 1:5. 0.5 μL of the compound dilution was added to the appropriate well to achieve a final concentration of 10; 2; 0.4; 0.08 and 0.016 μM. A DMSO only well was included as control.
The cells were incubated for 24 h in the presence of the compound at 37° C. and 10% CO2.
After the 24 h incubation period, the medium was removed and cells washed with 0.5 mL PBS. The cells were then lysed directly in 60 μL of 1×SDS gel loading buffer.
The cell lysate was heat-denatured at […] for 10 min. 10 μL of lysate per well were run on 18-well 4-15% Criterion TGX stain free gels (BIO-RAD). The proteins were then transferred onto nitrocellulose membrane with a wet transfer protocol in the Criterion Blotter (BIO-RAD).
Membranes were blocked with 5% skim milk in TBST. Primary antibody against MLKL (clone 3H1, MABC604 Merck) was used at 1:2000 dilution in TBST with 1% BSA and left shaking over night at 4° C. After washes with TBST, the membranes were incubated with goat anti-rat IgG HRP-conjugated antibody (Southern Biotech) in 1% skim milk TBST at 1:10000 dilution for 1 h at room temperature. After TBST washes the bands were imaged on the ChemiDoc MP Imaging System (BIO-RAD) with Immobilion Western Chemiluminescent HRP Substrate Forte (Millipore). The loading control GAPDH was probed for with rabbit anti-GAPDH (CST 14C10) at 1:2000 dilution in 1% BSA TBST over night at 4° C. TBST washes were followed by incubation with goat anti-rabbit IgG HRP-conjugated antibody (Southern Biotech) in 1% skim milk TBST at 1:10000 dilution for 1 h at room temperature followed by TBST washes. The signal was detected as described above.
The band intensity was measured in the ImageLab Software (BIO-RAD) and the MLKL values adjusted for loading with GAPDH. The percentage of degradation was calculated by normalizing the compound treated values to the DMSO only control.

human RIPK1 = human RIPK1 (Homo sapiens (Human), UniProt Q13546); assay: KINOMEscan binding assay, human RIPK1; settings: Table 21
Chain of human RIPK1 (Q13546 whole entry): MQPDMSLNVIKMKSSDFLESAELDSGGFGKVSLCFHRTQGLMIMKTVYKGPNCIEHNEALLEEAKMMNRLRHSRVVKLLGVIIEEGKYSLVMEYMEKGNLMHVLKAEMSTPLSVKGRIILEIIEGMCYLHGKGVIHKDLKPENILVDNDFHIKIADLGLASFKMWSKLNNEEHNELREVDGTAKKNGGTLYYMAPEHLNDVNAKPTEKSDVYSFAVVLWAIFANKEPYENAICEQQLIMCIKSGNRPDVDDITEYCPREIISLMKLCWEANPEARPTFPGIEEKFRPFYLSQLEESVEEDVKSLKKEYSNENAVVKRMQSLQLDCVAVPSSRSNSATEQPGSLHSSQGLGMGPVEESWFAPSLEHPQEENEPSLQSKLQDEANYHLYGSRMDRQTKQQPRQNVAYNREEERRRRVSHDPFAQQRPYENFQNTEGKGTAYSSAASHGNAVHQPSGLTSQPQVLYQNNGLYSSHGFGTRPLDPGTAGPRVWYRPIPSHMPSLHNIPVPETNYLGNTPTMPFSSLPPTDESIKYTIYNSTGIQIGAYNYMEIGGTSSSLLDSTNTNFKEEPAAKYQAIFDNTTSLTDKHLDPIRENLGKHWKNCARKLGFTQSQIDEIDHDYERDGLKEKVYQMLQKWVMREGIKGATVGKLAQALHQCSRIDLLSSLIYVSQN
In short: as §1

human RIPK3 = human RIPK3 (Homo sapiens (Human), UniProt Q9Y572); assay: KINOMEscan binding assay, human RIPK3; settings: Table 21
Chain of human RIPK3 (Q9Y572 whole entry): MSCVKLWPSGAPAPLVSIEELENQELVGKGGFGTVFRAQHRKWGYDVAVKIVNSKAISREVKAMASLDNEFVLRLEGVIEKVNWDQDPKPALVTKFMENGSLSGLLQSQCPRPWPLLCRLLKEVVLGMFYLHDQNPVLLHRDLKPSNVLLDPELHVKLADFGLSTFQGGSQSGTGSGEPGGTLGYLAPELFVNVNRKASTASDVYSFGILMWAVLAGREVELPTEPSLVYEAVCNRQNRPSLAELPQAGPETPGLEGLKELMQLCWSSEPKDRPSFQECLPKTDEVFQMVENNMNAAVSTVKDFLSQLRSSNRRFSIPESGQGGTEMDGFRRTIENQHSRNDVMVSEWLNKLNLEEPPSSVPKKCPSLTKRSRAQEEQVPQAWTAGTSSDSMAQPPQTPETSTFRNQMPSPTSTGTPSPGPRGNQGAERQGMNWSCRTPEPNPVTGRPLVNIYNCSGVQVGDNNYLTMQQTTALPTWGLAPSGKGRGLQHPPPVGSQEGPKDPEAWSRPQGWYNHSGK
In short: as §1

[1] = test system: Immortalised Mouse Dermal Fibroblasts (MDFs); assay: Cellular assay: inhibition of TSI induced necroptosis, CellTitre-Glo viability; settings: Mus musculus, Fibroblast; MDF, 3 hours TSI cocktail, Table 24; read-out: Inhibition of TSI-induced necroptosis (IC50 cell-based assay) in MDF
Experimental: Cellular Assay: Screening Compounds for Inhibition of TSI Induced Necroptosis in, 384 Well Plate Format.
• Cell Line ID: Immortalised Mouse Dermal Fibroblasts (MDFs). • Cell Concentration (cells/well): Final cell density is 2200 cells per well. • Cell growth medium: DMEM medium+7.4% Fetal Bovine Serum (FBS). Cells are cultured in Corning 150 cm^2 tissue culture flasks with vented caps at 37° C./10% CO2. • Incubation: Plates were incubated for 30 minutes following addition of compounds and then 3 hours incubation with death stimuli (TSI cocktail) at 37° C./10% CO2 in a humidified incubator. • Compound concentration: 36 μM starting concentration, 1:3 dilution, 10 point • DMSO final concentration (% v/v): 0.3%. Compounds in TSI Cocktail (T: TNF; S: Smac Mimetic; I: IDN-6556) and their Final Concentrations: • rhTNF (100 ng/ml) • Compound a (500 nM)—Smac Mimetic, Tetralogic and SYNthesis Med Chem • IDN-6556 (10 μM)—Selleckchem (S7775)
The cellular assay was carried out according to the following steps: • 1. Each well was prepared by sequential addition of: • a. 40 μL of cell suspension (5.5×10^4 cells/mL) was added to each well to provide a final cell concentration of 2,200 cells per well. • b. After 24 hours, DMSO (control; columns 1-2 and 23-24) or compound in DMSO—addition was performed using acoustic transfer of nL volumes of stock compound to give final test concentrations of 36, 12, 4, 1.3, 0.44, 0.148, 0.049, 0.016, 0.005 and 0.002 μM. All wells were backfilled with DMSO to a final total volume in the well of 100 nL. • c. Following compound/DMSO addition in step (b), Plates were incubated for 30 minutes at 37° C./10% CO2 in a humidified incubator and then 10 μL of 5×TSI cocktail (except to positive controls; columns 2 and 24) was added to each well. • 2. After 3 hours, plate was removed from the 37° C. incubator and equilibrated to room temperature for 15 minutes. • 3. 15 μL of room temperatured CellTitre-Glo2™ (Promega™) was added to each well. • 4. Shook plates for 2 minutes (˜600 rpm) and incubated at room temperature for 15 minutes to allow signal to stabilise. • 5. Read luminescence readout on a plate reader.
Percent viability was calculated for each compound according to equation (2):
[formula] • Wherein RawData is the readout of any cell containing a compound of the invention.
TA is the total activity provided by the luminescence readout from DMSO only wells (columns 2 and 24)=100% viability.
NSA is the non-specific activity provided by DMSO+TSI wells (columns 1 and 23)=0% viability • Curve fitting: 10-point titration curves are fitted with the 4-parameter logistic nonlinear regression model and the IC50 reported is the inflection point of the curve • Analysis: Data was loaded into Dotmatics™ and visualised using the Tibco@ • Spotfire™ software. 10 point titration curves were fitted with the 4 parameter logistic nonlinear regression model and the IC50 reported reflect the inflection point of the curve for curve fitting.
Assay involving the TSI cocktail (T: TNF; S: Smac mimetic; I: IDN-6556): TSI treatment ensures that cells specifically undergo necroptotic cell death. TNF activates the TNF receptor, Smac mimetic directs the signal away from proinflammatory signaling and toward the RIPK1/RIPK3-mediated cell death pathways, and IDN-6556 (Caspase inhibitor) ensures that the apoptotic response is blocked leaving only the programmed necrosis response. The compounds' activity (solution in DMSO) tested in this TSI-induced assay was evaluated by determining the number of viable cells in culture by measuring the amount of ATP present as measured by CelltiterGlo.

[2] = KINOMEscan, Table 21, read-out: Human MLKL (full-length) (KD)

Chain of human MLKL (full length) (Q8NB16 whole entry): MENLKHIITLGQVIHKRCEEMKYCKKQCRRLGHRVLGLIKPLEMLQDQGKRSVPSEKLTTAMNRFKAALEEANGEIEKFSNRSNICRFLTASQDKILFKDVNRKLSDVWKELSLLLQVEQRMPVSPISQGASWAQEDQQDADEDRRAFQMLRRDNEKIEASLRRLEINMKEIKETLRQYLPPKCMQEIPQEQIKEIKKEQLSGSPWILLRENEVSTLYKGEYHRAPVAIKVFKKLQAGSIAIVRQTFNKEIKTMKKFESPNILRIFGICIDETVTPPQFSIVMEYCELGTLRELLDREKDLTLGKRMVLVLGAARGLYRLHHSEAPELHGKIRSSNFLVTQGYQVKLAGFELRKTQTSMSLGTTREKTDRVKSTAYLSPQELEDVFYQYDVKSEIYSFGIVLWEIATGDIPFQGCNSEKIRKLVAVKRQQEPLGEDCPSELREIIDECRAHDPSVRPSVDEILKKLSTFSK

Structure (SMILES): C[C@H](Oc1cc(-c2nn(C)c3c(-c4cnn(C5CCN(CCc6cn(CCNc7cccc8c7C(=O)N(C7CCC(=O)NC7=O)C8=O)nn6)CC5)c4)cnc(N)c23)ccc1NS(=O)(=O)C(F)F)c1ccc(F)cc1 (stereo partly drawn) [Compound 1135, N-(4-{4-amino-7-[1-(1-{2-[1-(2-{[2-(2,6-dioxopiperidin-3-yl)-1,3-dioxo-2,3-dihydro-1H-isoindol-4-yl]amino}ethyl)-1H-1,2,3-triazol-4-yl]ethyl}piperidin-4-yl)-1H-pyrazol-4-yl]-1-methyl-1H-pyrazolo[4,3-c]pyridin-3-yl}-2-[(1 S)-1-(4-fluorophenyl)ethoxy]phenyl)-1,1-difluoromethanesulfonamide]
DC50 (endogenous MLKL in MDF): 1000 to 10000 nM

Structure (SMILES): C[C@H](Oc1cc(-c2nn(C)c3c(-c4cnn(CCCCCCCOc5cccc6c5C(=O)N(C5CCC(=O)N(C)C5=O)C6=O)c4)cnc(N)c23)ccc1NS(=O)(=O)C(F)F)c1ccc(F)cc1 (stereo partly drawn) [Compound 1100, N-(4-{4-amino-1-methyl-7-[1-(7-{[2-(1-methyl-2,6-dioxopiperidin-3-yl)-1,3-dioxo-2,3-dihydro-1H-isoindol-4-yl]oxy}heptyl)-1H-pyrazol-4-yl]-1H-pyrazolo[4,3-c]pyridin-3-yl}-2-[(1S)-1-(4-fluorophenyl)ethoxy]phenyl)-1,1-difluoromethanesulfonamide]
DC50 (endogenous MLKL in MDF): < 1000 nM

Structure (SMILES): C[C@H](Oc1cc(-c2nn(C)c3c(-c4cnn(C5CCN(C(=O)[C@]67C[C@](Nc8cccc9c8C(=O)N(C8CCC(=O)NC8=O)C9=O)(C6)C7)CC5)c4)cnc(N)c23)ccc1NS(=O)(=O)C(F)F)c1ccc(F)cc1 (stereo partly drawn) [Compound 1118, N-[4-(4-amino-7-{1-[1-(3-{[2-(2,6-dioxopiperidin-3-yl)-1,3-dioxo-2,3-dihydro-1H-isoindol-4-yl]amino}bicyclo[1.1.1]pentane-1-carbonyl)piperidin-4-yl]-1H-pyrazol-4-yl}-1-methyl-1H-pyrazolo[4,3-c]pyridin-3-yl)-2-[(1S)-1-(4-fluorophenyl)ethoxy]phenyl]-1,1-difluoromethanesulfonamide]
DC50 (endogenous MLKL in MDF): < 1000 nM

Structure (SMILES): C[C@H](Oc1cc(-c2nn(C)c3c(-c4cnn(C5CCC(C)(C)N(C)C5)c4)cnc(N)c23)ccc1NS(=O)(=O)C(F)F)c1ccc(F)cc1 (stereo partly drawn) [Compound 104, N-(4-{4-amino-1-methyl-7-[1-(1,6,6-trimethylpiperidin-3-yl)-1H-pyrazol-4-yl]-1H-pyrazolo[4,3-c]pyridin-3-yl}-2-[(1 S)-1-(4-fluorophenyl)ethoxy]phenyl)-1,1-difluoromethanesulfonamide]
Kd (human MLKL (full length); [2]): < 1 nM
Kd (human RIPK1): > 10000 nM
Kd (human RIPK3): > 10000 nM
IC50 [1]: < 1000 nM

Structure (SMILES): C[C@H](Oc1cc(-c2nn(C)c3c(C#CC4CCN(C)CC4)cnc(N)c23)ccc1NS(=O)(=O)C(F)F)c1ccc(F)cc1 [Compound 80, (S)—N-(4-(4-amino-1-methyl-7-((1-methylpiperidin-4-yl)ethynyl)-1H-pyrazolo[4,3-c]pyridin-3-yl)-2-(1-(4-fluorophenyl)ethoxy)phenyl)-1,1-difluoromethanesulfonamide]
Kd (human MLKL (full length); [2]): < 1 nM
Kd (human RIPK1): > 10000 nM
Kd (human RIPK3): > 10000 nM
IC50 [1]: < 1000 nM

Further lines, results first:

Kd (human MLKL (full length); hMLKL, Table 25, read-out: MLKL (KD)): 10 to 1000 nM
DC50 (endogenous MLKL in MDF): < 1000 nM
Structure (SMILES): Cc1ncsc1-c1ccc(CNC(=O)[C@@H]2C[C@@H](O)CN2C(=O)[C@@H](NC(=O)C2(F)CC2)C(C)(C)C)c(OCCCCCCCCn2cc(-c3cnc(N)c4c(-c5ccc(NS(=O)(=O)C(F)F)c(O[C@@H](C)c6ccc(F)cc6)c5)nn(C)c34)cn2)c1 [Compound 1045, (2S,4R)-N-[(2-{[8-(4-{4-amino-3-[4-(difluoromethanesulfonamido)-3-[(1S)-1-(4-fluorophenyl)ethoxy]phenyl]-1-methyl-1H-pyrazolo[4,3-c]pyridin-7-yl}-1H-pyrazol-1-yl)octyl]oxy}-4-(4-methyl-1,3-thiazol-5-yl)phenyl)methyl]-1-[(2S)-2-[(1-fluorocyclopropyl)formamido]-3,3-dimethylbutanoyl]-4-hydroxypyrrolidine-2-carboxamide]

DC50 (endogenous MLKL in MDF): 1000 to 10000 nM
Structure (SMILES): Cc1ncsc1-c1ccc(CNC(=O)[C@@H]2C[C@@H](O)CN2C(=O)[C@@H](NC(=O)CCCCCCCCC#Cc2cnc(N)c3c(-c4ccc(NS(=O)(=O)C(F)F)c(O[C@@H](C)c5ccc(F)cc5)c4)nn(C)c23)C(C)(C)C)cc1 [Compound 1028, (2S,4R)-1-[(2S)-2-(11-{4-amino-3-[4-(difluoromethanesulfonamido)-3-[(1S)-1-(4-fluorophenyl)ethoxy]phenyl]-1-methyl-1H-pyrazolo[4,3-c]pyridin-7-yl}undec-10-ynamido)-3,3-dimethylbutanoyl]-4-hydroxy-N-{[4-(4-methyl-1,3-thiazol-5-yl)phenyl]methyl}pyrrolidine-2-carboxamide]

DC50 (endogenous MLKL in MDF): 1000 to 10000 nM
Structure (SMILES): Cc1ncsc1-c1ccc(CNC(=O)[C@@H]2C[C@@H](O)CN2C(=O)[C@@H](NC(=O)CCCCCCC#Cc2cnc(N)c3c(-c4ccc(NS(=O)(=O)C(F)F)c(O[C@@H](C)c5ccc(F)cc5)c4)nn(C)c23)C(C)(C)C)cc1 [Compound 1027, (2S,4R)-1-[(2S)-2-(9-{4-amino-3-[4-(difluoromethanesulfonamido)-3-[(1S)-1-(4-fluorophenyl)ethoxy]phenyl]-1-methyl-1H-pyrazolo[4,3-c]pyridin-7-yl}non-8-ynamido)-3,3-dimethylbutanoyl]-4-hydroxy-N-{[4-(4-methyl-1,3-thiazol-5-yl)phenyl]methyl}pyrrolidine-2-carboxamide]
